PMC8393646, “Metformin Is a Pyridoxal-5′-phosphate (PLP)-Competitive Inhibitor of SHMT2” (Cancers, 2021)
Counter-ions that a name gives are not always drawn.

Assays:
[1] = molecular target: T1, SHMT1 (cytosolic serine hydroxymethyltransferase) (Homo sapiens, UniProt P34896); assay: spectrophotometric quinonoid-intermediate assay ([…] nm) with purified recombinant enzyme; assay type: biochemical
T1 sequence (P34896 2-483): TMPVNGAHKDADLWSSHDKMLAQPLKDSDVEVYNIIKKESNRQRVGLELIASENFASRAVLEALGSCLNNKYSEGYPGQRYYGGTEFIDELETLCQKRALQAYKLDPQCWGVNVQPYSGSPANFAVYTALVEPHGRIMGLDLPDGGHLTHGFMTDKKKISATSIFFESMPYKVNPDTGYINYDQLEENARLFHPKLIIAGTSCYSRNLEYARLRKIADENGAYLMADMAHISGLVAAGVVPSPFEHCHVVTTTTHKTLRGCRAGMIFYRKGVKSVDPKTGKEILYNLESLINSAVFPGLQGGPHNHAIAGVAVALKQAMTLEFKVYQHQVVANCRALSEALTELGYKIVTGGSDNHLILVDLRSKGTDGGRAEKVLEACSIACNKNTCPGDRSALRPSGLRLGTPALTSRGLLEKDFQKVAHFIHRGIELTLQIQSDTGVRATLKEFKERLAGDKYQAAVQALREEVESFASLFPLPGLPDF

[2] = molecular target: T2, SHMT2 (mitochondrial serine hydroxymethyltransferase) (Homo sapiens, UniProt P34897); assay: spectrophotometric quinonoid-intermediate assay ([…] nm) with purified recombinant enzyme, mixed-type inhibition fit; supported by DSF; assay type: biochemical
T2 sequence (P34897 30-504): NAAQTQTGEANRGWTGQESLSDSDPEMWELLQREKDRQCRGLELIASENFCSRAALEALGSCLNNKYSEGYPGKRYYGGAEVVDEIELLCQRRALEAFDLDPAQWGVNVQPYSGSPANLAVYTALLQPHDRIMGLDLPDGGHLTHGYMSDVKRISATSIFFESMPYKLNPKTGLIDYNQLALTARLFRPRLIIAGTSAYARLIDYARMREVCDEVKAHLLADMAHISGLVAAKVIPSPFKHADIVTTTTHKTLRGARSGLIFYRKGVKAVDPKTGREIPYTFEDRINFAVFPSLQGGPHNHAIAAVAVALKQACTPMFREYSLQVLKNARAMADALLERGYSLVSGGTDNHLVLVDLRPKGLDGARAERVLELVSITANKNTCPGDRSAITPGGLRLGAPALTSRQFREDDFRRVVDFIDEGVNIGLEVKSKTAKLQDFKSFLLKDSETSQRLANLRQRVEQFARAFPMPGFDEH

[3] = molecular target: T2, SHMT2 (mitochondrial serine hydroxymethyltransferase); assay: DSF titration of apo-enzyme with PLP (Tm vs concentration); assay type: binding; set-up: apo-SHMT2

| Ki [1] [mM] | Ki [2] [mM] | Kd [3] [mM] | Structure (SMILES) |
| --- | --- | --- | --- |
| 100 ± 33 | 13.3 ± 2.1 |  | CN(C)C(=N)N=C(N)N [MET, 1,1-dimethylbiguanide hydrochloride] |
|  |  | 0.0003 | Cc1ncc(COP(=O)(O)O)c(C=O)c1O [PLP, pyridoxal-5′-phosphate] |
